From ChEMBL document CHEMBL1201862, “PubChem BioAssay data set” (2004)
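Compound exposure: 48 hours, 5 concentrations, 96-well plates. Abbreviation: GI50, concentration required for 50% inhibition of growth.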 Calls of active or inactive are those of the source. No stated cut-off is given here; in the data, active = GI50 up to about 1.1 µM and inactive = higher. *1 amine or outer side, *2 acyl side, *3 side chain or, on linkers, in order; H or OH if unused. Where a SMILES comes first, the peptide text is derived from it. Bridges are numbered along the chain shown (N, C = ends). [ ]: non-standard residue; d: D form. The star is where a group is joined. ξ: configuration not given here. ξOrn(4,5-diOH) = O=C(C(CC(O)C(O)N[*:3])N[*:1])[*:2]; ξhTyr(βξ-OH,γξ-OH) = NC(C(=O)O)C(O)C(O)c1ccc(O)cc1; ξPro(3ξ-OH,4ξ-Me) = CC1CNC(C(=O)O)C1O; X55 = CCCCC/C=C/C/C=C\CCCCCCCC(=O)*; Hyp = O=C(O)[CH]1C[CH](O)CN1

Key:
Assay in all cases: NCI-60 cell line screen, 48 h
HOP-92 = system: HOP-92
SN12C = system: SN12C
BT-549 = system: BT-549
UACC-62 = system: UACC-62
HT-29 = system: HT-29
Hs-578T = system: Hs-578T
ACHN = system: ACHN
RXF 393 = system: RXF 393
RPMI-8226 = system: RPMI-8226
786-0 = system: 786-0
HCT-116 = system: HCT-116
CAKI-1 = system: CAKI-1
MDA-MB-435 = system: MDA-MB-435
NCI-H226 = system: NCI-H226
SK-OV-3 = system: SK-OV-3
CCRF-CEM = system: CCRF-CEM
HCT-15 = system: HCT-15
OVCAR-3 = system: OVCAR-3
SK-MEL-5 = system: SK-MEL-5
T47D = system: T47D
SK-MEL-2 = system: SK-MEL-2
HCC 2998 = system: HCC 2998
MOLT-4 = system: MOLT-4
UO-31 = system: UO-31
NCI-H23 = system: NCI-H23
HOP-62 = system: HOP-62
HL-60 = system: HL-60
KM12 = system: KM12
Malme-3M = system: Malme-3M
SK-MEL-28 = system: SK-MEL-28
OVCAR-5 = system: OVCAR-5
SF-539 = system: SF-539
DU-145 = system: DU-145
SNB-19 = system: SNB-19
COLO 205 = system: COLO 205
OVCAR-8 = system: OVCAR-8
A549 = system: A549
SW-620 = system: SW-620
SF-268 = system: SF-268
MDA-N = system: MDA-N
U-251 = system: U-251
SR = system: SR
SF-295 = system: SF-295
EKVX = system: EKVX
OVCAR-4 = system: OVCAR-4
LOX IMVI = system: LOX IMVI
MCF7 = system: MCF7
NCI-H522 = system: NCI-H522
M14 = system: M14
NCI-H460 = system: NCI-H460
K562 = system: K562
NCI/ADR-RES = system: NCI/ADR-RES
TK-10 = system: TK-10
A498 = system: A498
UACC-257 = system: UACC-257
MDA-MB-231 = system: MDA-MB-231
SNB-75 = system: SNB-75
IGROV-1 = system: IGROV-1
PC-3 = system: PC-3

CC(=O)Nc1cccc(N2C(=O)/C(=C\c3cccc(Oc4ccccc4)c3)SC2c2ccccc2)c1 (stereo not given)
GI50 (HOP-92): 32.5 µM (inactive) | GI50 (SN12C): > 100 µM (inactive) | GI50 (BT-549): > 100 µM (inactive) | GI50 (UACC-62): 60.3 µM (inactive) | GI50 (HT-29): 80.7 µM (inactive) | GI50 (Hs-578T): 60 µM (inactive) | GI50 (ACHN): 99.8 µM (inactive) | GI50 (RXF 393): 27.7 µM (inactive) | GI50 (RPMI-8226): 30.3 µM (inactive) | GI50 (786-0): > 100 µM (inactive) | GI50 (HCT-116): 27 µM (inactive) | GI50 (CAKI-1): > 100 µM (inactive) | GI50 (MDA-MB-435): 33.9 µM (inactive) | GI50 (NCI-H226): > 100 µM (inactive) | GI50 (SK-OV-3): 76 µM (inactive) | GI50 (CCRF-CEM): 14.9 µM (inactive) | GI50 (HCT-15): > 100 µM | GI50 (OVCAR-3): 50.7 µM (inactive) | GI50 (SK-MEL-5): 33.5 µM (inactive) | GI50 (T47D): 78.7 µM (inactive) | GI50 (SK-MEL-2): > 100 µM (inactive) | GI50 (HCC 2998): > 100 µM (inactive) | GI50 (MOLT-4): 26.5 µM (inactive) | GI50 (UO-31): 47.9 µM (inactive) | GI50 (NCI-H23): 83.2 µM (inactive) | GI50 (HOP-62): > 100 µM (inactive) | GI50 (HL-60): 36.6 µM (inactive) | GI50 (KM12): 80.7 µM (inactive) | GI50 (Malme-3M): > 100 µM (inactive) | GI50 (SK-MEL-28): 79.1 µM (inactive) | GI50 (OVCAR-5): > 100 µM (inactive) | GI50 (SF-539): 38.4 µM (inactive) | GI50 (DU-145): > 100 µM (inactive) | GI50 (SNB-19): > 100 µM (inactive) | GI50 (COLO 205): 68.7 µM (inactive) | GI50 (OVCAR-8): 92.5 µM (inactive) | GI50 (A549): 94.8 µM (inactive) | GI50 (SW-620): 54.6 µM (inactive) | GI50 (SF-268): 72.1 µM (inactive) | GI50 (MDA-N): 28.1 µM (inactive) | GI50 (U-251): 35.5 µM (inactive) | GI50 (SR): 17.2 µM (inactive) | GI50 (SF-295): > 100 µM (inactive) | GI50 (EKVX): > 100 µM (inactive) | GI50 (OVCAR-4): 53.5 µM (inactive) | GI50 (LOX IMVI): 37.8 µM (inactive) | GI50 (MCF7): 36.4 µM (inactive) | GI50 (NCI-H522): 63.5 µM (inactive) | GI50 (M14): > 100 µM (inactive) | GI50 (NCI-H460): > 100 µM (inactive) | GI50 (K562): 25.6 µM (inactive) | GI50 (NCI/ADR-RES): 60.8 µM (inactive) | GI50 (TK-10): 97.5 µM (inactive) | GI50 (A498): > 100 µM (inactive) | GI50 (UACC-257): > 100 µM (inactive) | GI50 (MDA-MB-231): > 100 µM (inactive)

CCCCC/C=C/C/C=C\CCCCCCCC(=O)NC1CC(O)C(O)NC(=O)C2C(O)C(C)CN2C(=O)C(C(C)O)NC(=O)C(C(O)C(O)c2ccc(O)cc2)NC(=O)C2CC(O)CN2C(=O)C(C(C)O)NC1=O (stereo not drawn) (X55-[ξOrn(4,5-diOH)]T[Hyp][ξhTyr(βξ-OH,γξ-OH)]T[ξPro(3ξ-OH,4ξ-Me)]; lactam 1-C; configuration not given here)
GI50 (HOP-92): > 100 µM (inactive) | GI50 (SN12C): > 100 µM (inactive) | GI50 (BT-549): > 100 µM (inactive) | GI50 (UACC-62): > 100 µM (inactive) | GI50 (HT-29): > 100 µM (inactive) | GI50 (Hs-578T): > 100 µM (inactive) | GI50 (ACHN): > 100 µM (inactive) | GI50 (RPMI-8226): > 100 µM (inactive) | GI50 (786-0): > 100 µM (inactive) | GI50 (HCT-116): > 100 µM (inactive) | GI50 (CAKI-1): > 100 µM (inactive) | GI50 (MDA-MB-435): > 100 µM (inactive) | GI50 (CCRF-CEM): > 100 µM (inactive) | GI50 (HCT-15): > 100 µM | GI50 (OVCAR-3): > 100 µM (inactive) | GI50 (SK-MEL-5): > 100 µM (inactive) | GI50 (T47D): > 100 µM (inactive) | GI50 (SK-MEL-2): > 100 µM (inactive) | GI50 (HCC 2998): > 100 µM (inactive) | GI50 (MOLT-4): > 100 µM (inactive) | GI50 (UO-31): > 100 µM (inactive) | GI50 (SNB-75): > 100 µM (inactive) | GI50 (NCI-H23): > 100 µM (inactive) | GI50 (HOP-62): > 100 µM (inactive) | GI50 (HL-60): > 100 µM (inactive) | GI50 (KM12): > 100 µM (inactive) | GI50 (SK-MEL-28): > 100 µM (inactive) | GI50 (OVCAR-5): > 100 µM (inactive) | GI50 (SF-539): > 100 µM (inactive) | GI50 (DU-145): > 100 µM (inactive) | GI50 (SNB-19): > 100 µM (inactive) | GI50 (COLO 205): > 100 µM (inactive) | GI50 (OVCAR-8): > 100 µM (inactive) | GI50 (A549): > 100 µM (inactive) | GI50 (SW-620): > 100 µM (inactive) | GI50 (SF-268): > 100 µM (inactive) | GI50 (MDA-N): > 100 µM (inactive) | GI50 (U-251): > 100 µM (inactive) | GI50 (SR): > 100 µM (inactive) | GI50 (SF-295): > 100 µM (inactive) | GI50 (EKVX): > 100 µM (inactive) | GI50 (OVCAR-4): > 100 µM (inactive) | GI50 (LOX IMVI): > 100 µM (inactive) | GI50 (IGROV-1): > 100 µM (inactive) | GI50 (NCI-H522): > 100 µM (inactive) | GI50 (M14): > 100 µM (inactive) | GI50 (NCI-H460): > 100 µM (inactive) | GI50 (PC-3): > 100 µM (inactive) | GI50 (K562): > 100 µM (inactive) | GI50 (NCI/ADR-RES): > 100 µM (inactive) | GI50 (TK-10): > 100 µM (inactive) | GI50 (UACC-257): > 100 µM (inactive) | GI50 (MDA-MB-231): > 100 µM (inactive)

O=C1/C(=C\c2cccc(Oc3ccccc3)c2)SC(c2ccccc2)N1Cc1ccccc1 (stereo not given)
GI50 (HOP-92): 19 µM (inactive) | GI50 (SN12C): 33 µM (inactive) | GI50 (BT-549): 25.2 µM (inactive) | GI50 (UACC-62): 29.3 µM (inactive) | GI50 (HT-29): 20.2 µM (inactive) | GI50 (Hs-578T): 29.1 µM (inactive) | GI50 (ACHN): 52.8 µM (inactive) | GI50 (RXF 393): 20.1 µM (inactive) | GI50 (RPMI-8226): 24.3 µM (inactive) | GI50 (786-0): 34.8 µM (inactive) | GI50 (HCT-116): 14.9 µM (inactive) | GI50 (CAKI-1): 49.7 µM (inactive) | GI50 (MDA-MB-435): 23.3 µM (inactive) | GI50 (NCI-H226): 22.6 µM (inactive) | GI50 (SK-OV-3): 19.1 µM (inactive) | GI50 (CCRF-CEM): 17.1 µM (inactive) | GI50 (HCT-15): 32.8 µM | GI50 (OVCAR-3): 23.5 µM (inactive) | GI50 (SK-MEL-5): 14.8 µM (inactive) | GI50 (T47D): 26.2 µM (inactive) | GI50 (SK-MEL-2): 18.2 µM (inactive) | GI50 (HCC 2998): 30.3 µM (inactive) | GI50 (MOLT-4): 30.1 µM (inactive) | GI50 (UO-31): 25.7 µM (inactive) | GI50 (NCI-H23): 22.7 µM (inactive) | GI50 (HOP-62): 29.1 µM (inactive) | GI50 (HL-60): 23.3 µM (inactive) | GI50 (KM12): 24.5 µM (inactive) | GI50 (Malme-3M): 22.2 µM (inactive) | GI50 (SK-MEL-28): 29.6 µM (inactive) | GI50 (OVCAR-5): 57.3 µM (inactive) | GI50 (SF-539): 18.5 µM (inactive) | GI50 (DU-145): 34.9 µM (inactive) | GI50 (SNB-19): 24.7 µM (inactive) | GI50 (COLO 205): 10.3 µM (inactive) | GI50 (OVCAR-8): 22.4 µM (inactive) | GI50 (A549): 29.4 µM (inactive) | GI50 (SW-620): 38.3 µM (inactive) | GI50 (SF-268): 35 µM (inactive) | GI50 (MDA-N): 17 µM (inactive) | GI50 (U-251): 18.4 µM (inactive) | GI50 (SR): 23.9 µM (inactive) | GI50 (SF-295): 35.3 µM (inactive) | GI50 (EKVX): 28 µM (inactive) | GI50 (OVCAR-4): 31.6 µM (inactive) | GI50 (LOX IMVI): 15.5 µM (inactive) | GI50 (MCF7): 26.1 µM (inactive) | GI50 (NCI-H522): 18.2 µM (inactive) | GI50 (M14): 22.4 µM (inactive) | GI50 (NCI-H460): 33.3 µM (inactive) | GI50 (K562): 29.9 µM (inactive) | GI50 (NCI/ADR-RES): 20.4 µM (inactive) | GI50 (TK-10): 32.1 µM (inactive) | GI50 (A498): 37.7 µM (inactive) | GI50 (UACC-257): 26.6 µM (inactive) | GI50 (MDA-MB-231): 32.9 µM (inactive)
